Minimal effective dose data for one compound are collected here from patent publication EP0165775A1, “Antifungal azole compounds” (IMPERIAL CHEMICAL INDUSTRIES PLC, priority 1984, dated 1985).

The assay has as its system Candida albicans and Trichophyton mentagrophytes var. quinkeanum. Put plainly: animal or person. It counts as in vivo. The following applies: 168 h; female mice, oral dosing twice on day 0 and once daily on days 1-4; skin lesions scored and vaginal samples cultured on day 7; read-out: minimum effective dose (MED). On the procedure:
The following Monday (day 0) they are clipped on the back and then dosed orally with test compounds. They are then inoculated with Candida albicans in the vagina and Trichophyton mentagrophytes var. quinkeanum on the back, and then given a second dose of the same compound. Dosing is repeated once daily on days 1-4. On day 7 skin lesions are scored visually and vaginal samples taken for culture on agar. Groups of 5 mice are used and compounds are dosed initially at a level of 250mg./kg. The dose is then reduced sequentially until a minimum effective dose (MED) is found.

Take `OC(Cn1cncn1)(Cn1cnc(Br)n1)c1ccc(F)cc1F` (stereo not drawn) [Example 1, 1-(3-bromo-1,2,4-triazol-1-yl)-2-(2,4-difluorophenyl)-3-(1,2,4-triazol-l-yl)propan-2-ol]: the minimal effective dose was 2.5 mg/kg.
